system: Aβ formation (γ-secretase) in H4 cells stably transfected to overexpress the HPLAP-APP fusion protein; assay: In vitro assay based on the inhibition of Aβ formation in cultured cells; assay type: cell-based, human; details: H4 cells overexpressing HPLAP-APP, 18 hrs incubation at 37° C., Aβ in supernatant by time-resolved fluorescence; class symbols
Description: Cultured human cell lines, such as HEK293 and H4 cells, which express APP and γ-secretase activity or transfected derivative cell lines that overexpress wild-type APP, mutant APP, or APP fusion proteins will secrete Aβ peptides into the culture media that can be quantified as previously outlined (Dovey, H. et al., J. Neurochem., 76:173-181 (2001)). The incubation of these cultured cells with γ-secretase inhibitors decreases the production of Aβ peptides. For instance, H4 cells stably transfected to overexpress the HPLAP-APP fusion protein described above were grown as above, detached, and adjusted to 2×10^5 cells/ml. 100 μl of the resulting suspension was then added to each well of a 96-well plate. After 4 hrs, the media was removed and replaced with 100 μl serum-free media containing various dilutions of the test compound. Plates were then incubated for 18 hrs at 37° C. and a 100 μl aliquot of the tissue culture supernatant was removed for determination of Aβ levels using time-resolved fluorescence of the homogenous sample as outlined above. Alternately, the other methods described above for Aβ determination could be used. The extent of Aβ inhibition was used to calculate the IC50 value for the test compound.
In the table, an inhibitory concentration (IC50) of less than or equal to 50 nM is represented by +++; between 50 nM and 500 nM by ++; between 500 nM and 5000 nM by +.

Compound | IC50 [nM]
O=S(=O)(c1ccc(Cl)cc1)N(Cc1ccc(-c2ncon2)cc1)[C@@H]1CCCC[C@H]1CO (single isomer, unassigned) [Compound 7, N-(4-(1,2,4-oxadiazol-3-yl)benzyl)-4-chloro-N-(trans-2-(hydroxymethyl)cyclohexyl)benzenesulfonamide] | ≤ 50
O=S(=O)(c1ccc(Cl)cc1)N(Cc1ccc(-c2ncco2)c(F)c1F)[C@@H]1CCCC[C@H]1CO [Compound 16, 4-Chloro-N-(2,3-difluoro-4-(oxazol-2-yl)benzyl)-N-((1R,2R)-2-(hydroxymethyl)cyclohexyl)benzenesulfonamide] | ≤ 50
O=S(=O)(c1ccc(Cl)cc1)N(Cc1ccc(-c2ncon2)cc1)[C@@H]1CCCC[C@H]1CO [Compound 17, N-(4-(1,2,4-Oxadiazol-3-yl)benzyl)-4-chloro-N-((1R,2R)-2-(hydroxymethyl)cyclohexyl)benzenesulfonamide] | ≤ 50

same assay, conditions: H4 cells overexpressing HPLAP-APP, 18 hrs incubation at 37° C., Aβ in supernatant by time-resolved fluorescence; numeric values

Compound | IC50 [nM]
O=S(=O)(c1ccc(Cl)cc1)N(Cc1cc(F)c(-c2ncon2)cc1F)[C@@H]1CCCC[C@H]1CO (relative stereo) [Compound 11, 4-Chloro-N-(2,5-difluoro-4-(1,2,4-oxadiazol-3-yl)benzyl)-N-(trans-2-(hydroxymethyl)cyclohexyl)benzenesulfonamide] | 0.32
O=S(=O)(c1ccc(Cl)cc1)N(Cc1cc(F)c(-c2ncon2)cc1F)[C@@H]1CCCC[C@H]1CO [Compound 21, 4-Chloro-N-(2,5-difluoro-4-(1,2,4-oxadiazol-3-yl)benzyl)-N-((1R,2R)-2-(hydroxymethyl)cyclohexyl)benzenesulfonamide] | 0.15

same assay, conditions: Homo sapiens, 18 h, H4 cells overexpressing HPLAP-APP, 18 hrs incubation at 37° C., Aβ in supernatant by time-resolved fluorescence; class symbols

Compound | IC50 [nM]
O=S(=O)(c1ccc(Cl)cc1)N(Cc1ccc(-c2ncco2)cc1)[C@@H]1CCC[C@H]1CO (relative stereo) [Compound 1, 4-Chloro-N-(trans-2-(hydroxymethyl)cyclopentyl)-N-(4-(oxazol-2-yl)benzyl)benzenesulfonamide] | 50 to 500
O=S(=O)(c1ccc(Cl)cc1)N(Cc1ccc(-c2ncon2)cc1)[C@@H]1CCC[C@H]1CO (relative stereo) [Compound 2, N-(4-(1,2,4-Oxadiazol-3-yl)benzyl)-4-chloro-N-(trans-2-(hydroxymethyl)cyclopentyl)benzenesulfonamide] | 50 to 500
O=S(=O)(c1ccc(Cl)cc1)N(Cc1ccc(-c2ncon2)cc1)[C@@H]1CCC[C@@H]1CO (relative stereo) [Compound 4, N-(4-(1,2,4-Oxadiazol-3-yl)benzyl)-4-chloro-N-(cis-2-(hydroxymethyl)cyclopentyl)benzenesulfonamide] | 50 to 500
O=S(=O)(c1ccc(Cl)cc1)N(Cc1ccc(-c2ncon2)cc1)[C@@H]1CCCC[C@H]1CO (relative stereo) [Compound 5, N-(4-(1,2,4-Oxadiazol-3-yl)benzyl)-4-chloro-N-(trans-2-(hydroxymethyl)cyclohexyl)benzenesulfonamide] | ≤ 50
O=S(=O)(c1ccc(Cl)cc1)N(Cc1ccc(-c2ncon2)cc1F)[C@@H]1CCCC[C@H]1CO (relative stereo) [Compound 8, 4-Chloro-N-(2-fluoro-4-(1,2,4-oxadiazol-3-yl)benzyl)-N-(trans-2-(hydroxymethyl)cyclohexyl)benzenesulfonamide] | ≤ 50
O=S(=O)(c1ccc(Cl)cc1)N(Cc1ccc(-c2ncco2)c(F)c1F)[C@@H]1CCCC[C@H]1CO (relative stereo) [Compound 9, 4-Chloro-N-(2,3-difluoro-4-(oxazol-2-yl)benzyl)-N-(trans-2-(hydroxymethyl)cyclohexyl)benzenesulfonamide] | ≤ 50
N#Cc1cc(F)c(CN([C@@H]2CCCC[C@H]2CO)S(=O)(=O)c2ccc(Cl)cc2)cc1F (relative stereo) [Compound 10, 4-Chloro-N-(4-cyano-2,5-difluorobenzyl)-N-(trans-2-(hydroxymethyl)cyclohexyl)benzenesulfonamide] | ≤ 50
O=S(=O)(c1ccc(Cl)s1)N(Cc1ccc(-c2ncon2)cc1)[C@@H]1CCCC[C@H]1CO (relative stereo) [Compound 12, N-(4-(1,2,4-Oxadiazol-3-yl)benzyl)-5-chloro-N-(trans-2-(hydroxymethyl)cyclohexyl)thiophene-2-sulfonamide] | ≤ 50
O=S(=O)(c1ccc(Cl)s1)N(Cc1ccc(-c2ncco2)c(F)c1F)[C@@H]1CCCC[C@H]1CO (relative stereo) [Compound 13, 5-Chloro-N-(2,3-difluoro-4-(oxazol-2-yl)benzyl)-N-(trans-2-(hydroxymethyl)cyclohexyl)thiophene-2-sulfonamide] | ≤ 50
O=S(=O)(c1ccc(C(F)(F)F)nc1)N(Cc1ccc(-c2ncco2)c(F)c1F)[C@@H]1CCCC[C@H]1CO (relative stereo) [Compound 27, N-(2,3-Difluoro-4-(oxazol-2-yl)benzyl)-N-(trans-2-(hydroxymethyl)cyclohexyl)-6-(trifluoromethyl)pyridine-3-sulfonamide] | ≤ 50
N#Cc1ccc(CN([C@@H]2CCCCC[C@H]2CO)S(=O)(=O)c2ccc(Cl)cc2)cc1 (relative stereo) [Compound 28, 4-Chloro-N-(4-cyanobenzyl)-N-(trans-2-(hydroxymethyl)cycloheptyl)benzenesulfonamide] | ≤ 50
O=S(=O)(c1ccc(Cl)cc1)N(Cc1ccc(-c2ncon2)cc1)[C@@H]1CCCCC[C@H]1CO (relative stereo) [Compound 29, N-(4-(1,2,4-Oxadiazol-3-yl)benzyl)-4-chloro-N-(trans-2-(hydroxymethyl)cycloheptyl)benzenesulfonamide] | ≤ 50
O=S(=O)(c1ccc(Cl)cc1)N(Cc1ccc(-c2ncco2)cc1)[C@@H]1CCCCC[C@H]1CO (relative stereo) [Compound 30, 4-Chloro-N-(trans-2-(hydroxymethyl)cycloheptyl)-N-(4-(oxazol-2-yl)benzyl)benzenesulfonamide] | ≤ 50
O=S(=O)(c1ccc(Cl)cc1)N(Cc1ccc(-c2ncco2)cc1)[C@@H]1CCCCC[C@@H]1CO (relative stereo) [Compound 31, 4-Chloro-N-(cis-2-(hydroxymethyl)cycloheptyl)-N-(4-(oxazol-2-yl)benzyl)benzenesulfonamide] | 50 to 500
O=S(=O)(c1ccc(Cl)cc1)N(Cc1ccc(-c2ncon2)cc1)[C@@H]1CCCCC[C@@H]1CO (relative stereo) [Compound 32, N-(4-(1,2,4-Oxadiazol-3-yl)benzyl)-4-chloro-N-(cis-2-(hydroxymethyl)cycloheptyl)benzenesulfonamide] | ≤ 50
O=S(=O)(c1ccc(Cl)cc1)N(Cc1ccc(-c2ncon2)cc1)[C@@H]1CCCC[C@H]1CO (single isomer, unassigned) [Compound 6, N-(4-(1,2,4-oxadiazol-3-yl)benzyl)-4-chloro-N-(trans-2-(hydroxymethyl)cyclohexyl)benzenesulfonamide] | ≤ 50
O=S(=O)(N[C@H]1CCCC[C@@H]1CO)c1ccc(Cl)cc1 (single isomer, unassigned) [Compound 14] | 500 to 5000
O=S(=O)(N[C@@H]1CCCC[C@H]1CO)c1ccc(Cl)cc1 (single isomer, unassigned) [Compound 15] | 500 to 5000
CC(O)[C@@H]1CCCC[C@H]1N(Cc1ccc(-c2ncco2)cc1F)S(=O)(=O)c1ccc(Cl)cc1 (single isomer, unassigned) [Compound 25] | ≤ 50
O=S(=O)(c1ccc(Cl)cc1)N(Cc1ccc(-c2ncco2)cc1)[C@@H]1CCCC[C@H]1CO [Compound 18, 4-Chloro-N-((1R,2R)-2-(hydroxymethyl)cyclohexyl)-N-(4-(oxazol-2-yl)benzyl)benzenesulfonamide] | ≤ 50
O=S(=O)(c1ccc(Cl)cc1)N(Cc1ccc(-c2ncco2)cc1F)[C@@H]1CCCC[C@H]1CO [Compound 19, 4-Chloro-N-(2-fluoro-4-(oxazol-2-yl)benzyl)-N-((1R,2R)-2-(hydroxymethyl)cyclohexyl)benzenesulfonamide] | ≤ 50
O=S(=O)(c1ccc(Cl)cc1)N(Cc1cc(F)c(-c2ncco2)cc1F)[C@@H]1CCCC[C@H]1CO [Compound 20, 4-Chloro-N-(2,5-difluoro-4-(oxazol-2-yl)benzyl)-N-((1R,2R)-2-(hydroxymethyl)cyclohexyl)benzenesulfonamide] | ≤ 50
O=S(=O)(c1ccc(Cl)cc1)N(Cc1ccc(-c2ncco2)cc1F)[C@@H]1CCCC[C@H]1CF [Compound 22, 4-Chloro-N-(2-fluoro-4-(oxazol-2-yl)benzyl)-N-((1R,2R)-2-(fluoromethyl)cyclohexyl)benzenesulfonamide] | ≤ 50

same assay, conditions: Homo sapiens, 18 h, H4 cells overexpressing HPLAP-APP, 18 hrs incubation at 37° C., Aβ in supernatant by time-resolved fluorescence; numeric values

Compound | IC50 [nM]
O=S(=O)(c1ccc(Cl)cc1)N(Cc1ccc(-c2ncco2)cc1)[C@@H]1CCC[C@@H]1CO (relative stereo) [Compound 3, 4-Chloro-N-(cis-2-(hydroxymethyl)cyclopentyl)-N-(4-(oxazol-2-yl)benzyl)benzenesulfonamide] | 223
CC(O)[C@@H]1CCCC[C@H]1N(Cc1ccc(-c2ncco2)cc1F)S(=O)(=O)c1ccc(Cl)cc1 (single isomer, unassigned) [Compound 24] | 2300

— patent US7977362B2, “Alpha-(N-benzenesulfonamido)cycloalkyl derivatives” (Bristol-Myers Squibb Company, priority 2009, dated 2011)
